Data from ChEMBL document CHEMBL3885881, “DrugMatrix”.

Species on record: Rattus norvegicus
Assay: DrugMatrix - Regimen: Daily Repeat
Type: toxicity, organism-based, Sprague-Dawley
Set-up: regimen Daily Repeat, gender Male, age 6-8 weeks
Details: in vivo, po, 0 mg/kg, route oral GAVAGE, dose level Control; for ABSOLUTE EOSINOPHIL / ABSOLUTE LYMPHOCYTE / ABSOLUTE MONOCYTE / ABSOLUTE SEGMENTED NEUTROPHIL / EOSINOPHIL / ERYTHROCYTE COUNT / HEMATOCRIT / HEMOGLOBIN / LEUKOCYTE COUNT / LYMPHOCYTE / MEAN CORPUSCULAR HEMOGLOBIN / MEAN CORPUSCULAR HEMOGLOBIN CONCENTRATION / MEAN CORPUSCULAR VOLUME / MONOCYTE / NEUTROPHIL / NUCLEATED RED BLOOD CELLS / PLATELET COUNT / ABSOLUTE BASOPHIL / BASOPHIL: tissue Blood
[1] = 72 h, time 3 day, vehicle 100 % SALINE
[2] = 72 h, time 3 day, vehicle 100 % WATER
[3] = 72 h, tissue Plasma, time 3 day, vehicle 100 % SALINE
[4] = 72 h, tissue Plasma, time 3 day, vehicle 100 % WATER
[5] = 120 h, time 5 day, vehicle 100 % SALINE
[6] = 120 h, time 5 day, vehicle 100 % WATER

CCCc1nn(C)c2c(=O)[nH]c(-c3cc(S(=O)(=O)N4CCN(C)CC4)ccc3OCC)nc12
ABSOLUTE EOSINOPHIL [1]: 37 CELLS/uL | ABSOLUTE LYMPHOCYTE [1]: 12359.33 CELLS/uL | ABSOLUTE MONOCYTE [1]: 122.67 CELLS/uL | ABSOLUTE SEGMENTED NEUTROPHIL [1]: 847.67 CELLS/uL | EOSINOPHIL [1]: 0.33% | ERYTHROCYTE COUNT [1]: 5.75 x10E6/uL | HEMATOCRIT [1]: 36.08% | HEMOGLOBIN [1]: 14.07 G/DL | LEUKOCYTE COUNT [1]: 13.37 x10E3/uL | LYMPHOCYTE [1]: 92.5% | MEAN CORPUSCULAR HEMOGLOBIN [1]: 24.47 pg | MEAN CORPUSCULAR HEMOGLOBIN CONCENTRATION [1]: 38.98 G/DL | MEAN CORPUSCULAR VOLUME [1]: 62.78 fL | MONOCYTE [1]: 1% | NEUTROPHIL [1]: 6.17% | NUCLEATED RED BLOOD CELLS [1]: 0.17 /100WBC | PLATELET COUNT [1]: 1202.17 x10E3/uL | ABSOLUTE BASOPHIL [2]: 0 CELLS/uL | ABSOLUTE EOSINOPHIL [2]: 0 CELLS/uL | ABSOLUTE LYMPHOCYTE [2]: 7802.17 CELLS/uL | ABSOLUTE MONOCYTE [2]: 13.5 CELLS/uL | ABSOLUTE SEGMENTED NEUTROPHIL [2]: 617.67 CELLS/uL | BASOPHIL [2]: 0% | EOSINOPHIL [2]: 0% | ERYTHROCYTE COUNT [2]: 5.35 x10E6/uL | HEMATOCRIT [2]: 33.02% | HEMOGLOBIN [2]: 12.88 G/DL | LEUKOCYTE COUNT [2]: 8.43 x10E3/uL | LYMPHOCYTE [2]: 92.67% | MEAN CORPUSCULAR HEMOGLOBIN [2]: 24.12 pg | MEAN CORPUSCULAR HEMOGLOBIN CONCENTRATION [2]: 39.03 G/DL | MEAN CORPUSCULAR VOLUME [2]: 61.8 fL | MONOCYTE [2]: 0.17% | NEUTROPHIL [2]: 7.17% | NUCLEATED RED BLOOD CELLS [2]: 0 /100WBC | PLATELET COUNT [2]: 1124.83 x10E3/uL | ALANINE AMINOTRANSFERASE [3]: 50.67 u/L | ALBUMIN [3]: 4.13 G/DL | ALKALINE PHOSPHATASE [3]: 356.33 u/L | ASPARTATE AMINOTRANSFERASE [3]: 78.17 u/L | BLOOD UREA NITROGEN [3]: 14.17 mg/dL | CARBON DIOXIDE [3]: 31.33 mmol/L | CHLORIDE [3]: 98.5 MEQ/L | CHOLESTEROL [3]: 76.5 mg/dL | CREATINE PHOSPHOKINASE [3]: 248.33 u/L | CREATININE [3]: 0.2 mg/dL | GLUCOSE [3]: 144 mg/dL | LACTATE DEHYDROGENASE [3]: 107 u/L | LIPASE [3]: 9.83 u/L | PHOSPHORUS [3]: 12.8 mg/dL | POTASSIUM [3]: 6.75 MEQ/L | SODIUM [3]: 142 MEQ/L | TOTAL PROTEIN [3]: 5.98 G/DL | URIC ACID [3]: 1.42 mg/dL | ALANINE AMINOTRANSFERASE [4]: 54.17 u/L | ALBUMIN [4]: 4.07 G/DL | ALKALINE PHOSPHATASE [4]: 383.83 u/L | ASPARTATE AMINOTRANSFERASE [4]: 82.17 u/L | BLOOD UREA NITROGEN [4]: 13.67 mg/dL | CARBON DIOXIDE [4]: 31 mmol/L | CHLORIDE [4]: 100.83 MEQ/L | CHOLESTEROL [4]: 65.17 mg/dL | CREATINE PHOSPHOKINASE [4]: 228.33 u/L | CREATININE [4]: 0.12 mg/dL | GLUCOSE [4]: 148 mg/dL | LACTATE DEHYDROGENASE [4]: 97.83 u/L | LIPASE [4]: 9.17 u/L | PHOSPHORUS [4]: 9.75 mg/dL | POTASSIUM [4]: 5.85 MEQ/L | SODIUM [4]: 147.02 MEQ/L | TOTAL BILIRUBIN [4]: 0.18 mg/dL | TOTAL PROTEIN [4]: 6.1 G/DL | URIC ACID [4]: 0.5 mg/dL | ABSOLUTE LYMPHOCYTE [5]: 8681.17 CELLS/uL | ABSOLUTE MONOCYTE [5]: 79.83 CELLS/uL | ABSOLUTE SEGMENTED NEUTROPHIL [5]: 689 CELLS/uL | HEMATOCRIT [5]: 33.55% | HEMOGLOBIN [5]: 13.1 G/DL | LEUKOCYTE COUNT [5]: 9.45 x10E3/uL | LYMPHOCYTE [5]: 92.33% | MEAN CORPUSCULAR HEMOGLOBIN [5]: 23.92 pg | MEAN CORPUSCULAR HEMOGLOBIN CONCENTRATION [5]: 39.07 G/DL | MEAN CORPUSCULAR VOLUME [5]: 61.22 fL | MONOCYTE [5]: 0.67% | NEUTROPHIL [5]: 7% | PLATELET COUNT [5]: 1001.17 x10E3/uL | ABSOLUTE BASOPHIL [6]: 0 CELLS/uL | ABSOLUTE EOSINOPHIL [6]: 0 CELLS/uL | ABSOLUTE LYMPHOCYTE [6]: 10538 CELLS/uL | ABSOLUTE MONOCYTE [6]: 15.83 CELLS/uL | ABSOLUTE SEGMENTED NEUTROPHIL [6]: 762.83 CELLS/uL | BASOPHIL [6]: 0%
